In brackets after ≈: the same amount, converted by molar mass. Several values for one entry are separate records, joined by “and”; a condition that tells them apart may be missing. Equal entries are not always repeated.
Assays:
Assay in all cases: ≥ marks a high value that may be exact or a test limit, other limits are often not marked, values filed in µg/mL are converted to µM
Vibrio alginolyticus = test system: Vibrio alginolyticus
Escherichia coli = test system: Escherichia coli
Streptococcus pyogenes = test system: Streptococcus pyogenes
Staphylococcus aureus = test system: Staphylococcus aureus
Aeromonas hydrophila = test system: Aeromonas hydrophila
Vibrio fluvialis = test system: Vibrio fluvialis
Vibrio parahaemolyticus = test system: Vibrio parahaemolyticus
Candida krusei CBS 573 = test system: Candida krusei CBS 573
[1] = test system: Candida albicans ATCC 10231
[2] = test system: Candida parapsilosis CBS 604
[3] = test system: Saccharomyces cerevisiae SZMC 0644
[4] = test system: Escherichia coli ATCC 25922
Bacillus megaterium Bm11 = test system: Bacillus megaterium Bm11
[5] = test system: Klebsiella aerogenes ATCC 35029
[6] = test system: Streptococcus pyogenes ATCC 49399
[7] = test system: Staphylococcus aureus ATCC 6538P
[8] = test system: Enterococcus faecalis ATCC 19433
[9] = test system: Pseudomonas aeruginosa ATCC 27853
[10] = test system: Enterobacter cloacae ATCC 49141
[11] = test system: Fusarium solani MTCC 10158
Escherichia coli SBS 363 = test system: Escherichia coli SBS 363
Candida albicans MDM8 = test system: Candida albicans MDM8
Micrococcus luteus A270 = test system: Micrococcus luteus A270
Serratia marcescens = test system: Serratia marcescens
[12] = test system: Pseudomonas aeruginosa ATCC 9027
[13] = test system: Staphylococcus epidermidis ATCC 12228
[14] = test system: Bacillus subtilis KCTC 1021
[15] = test system: Shigella dysenteriae ATCC 9752
Candida albicans = test system: Candida albicans
[16] = test system: Salmonella enterica subsp. enterica serovar Typhimurium ATCC 14028
Saccharomyces cerevisiae = test system: Saccharomyces cerevisiae
Pseudomonas putida = test system: Pseudomonas putida
[17] = test system: Proteus mirabilis ATCC 25933
[18] = test system: Micrococcus luteus ATCC 4698
[19] = test system: Klebsiella pneumoniae ATCC 10031
[20] = test system: Aggregatibacter actinomycetemcomitans ATCC 29522
[21] = test system: Streptococcus sanguinis ATCC 10556
[22] = test system: Staphylococcus aureus ATCC 25923

## CC[C@H](C)[C@H](NC(=O)[C@H](C)NC(=O)[C@H](CC(=O)O)NC(=O)[C@H](CCCN=C(N)N)NC(=O)[C@@H](NC(=O)[C@@H](N)CCCN=C(N)N)[C@@H](C)CC)C(=O)N[C@@H](C)C(=O)N[C@@H](Cc1cnc[nH]1)C(=O)NCC(=O)N[C@@H](Cc1ccc(O)cc1)C(=O)N[C@H](C(=O)N[C@H](C(=O)N[C@@H](CC(=O)O)C(=O)N[C@@H](CCCCN)C(=O)N[C@H](C(=O)O)C(C)C)C(C)C)[C@@H](C)CC [RIRDAIAHGYIVDKV]
Vibrio alginolyticus
  MIC: 18.1 µM (≈ 31.3 µg/mL)
Escherichia coli
  MIC: > 145 µM
Streptococcus pyogenes
  MIC: ≥ 72.4 µM
Staphylococcus aureus
  MIC: > 145 µM
Aeromonas hydrophila
  MIC: 18.1 µM (≈ 31.3 µg/mL)
Vibrio fluvialis
  MIC: ≥ 72.4 µM
Vibrio parahaemolyticus
  MIC: ≥ 145 µM

## CC[C@H](C)[C@H](N)C(=O)N[C@@H](C)C(=O)NCC(=O)N[C@@H](C)C(=O)N[C@@H](Cc1cnc[nH]1)C(=O)N[C@@H](CCCCN)C(=O)N[C@H]1CSSC[C@@H](C(=O)N[C@@H](CC(N)=O)C(=O)N[C@@H](CO)C(=O)N2CCC[C@H]2C(=O)N[C@@H](CC(N)=O)C(=O)O)NC(=O)[C@@H]2CSSC[C@H](NC(=O)[C@@H]3CCCN3C(=O)[C@H](CCCCN)NC1=O)C(=O)N[C@@H](Cc1ccc(O)cc1)C(=O)NCC(=O)N[C@@H](Cc1ccc(O)cc1)C(=O)N[C@@H](CCCCN)C(=O)N[C@@H]([C@@H](C)O)C(=O)N[C@@H](CC(N)=O)C(=O)N[C@@H](CO)C(=O)N2 [IAGAHKCKPCYGYKTNSCCNSPN]
Candida krusei CBS 573
  MIC: 20.3 µM (≈ 49.9 µg/mL)
[1]
  MIC: 20.3 µM (≈ 49.9 µg/mL)
[2]
  MIC: 20.3 µM (≈ 49.9 µg/mL)
[3]
  MIC: 20.3 µM (≈ 49.9 µg/mL)

## CC[C@H](C)[C@H](NC(=O)[C@H](CCCN=C(N)N)NC(=O)[C@@H](NC(=O)[C@H](CCCN=C(N)N)NC(=O)[C@H](Cc1c[nH]c2ccccc12)NC(=O)[C@H](CCCN=C(N)N)NC(=O)[C@H](Cc1ccccc1)NC(=O)[C@H](CCCN=C(N)N)NC(=O)[C@@H]1CCCN1)[C@@H](C)CC)C(N)=O [PRFRWRIRI]
[4]
  MIC: 3.54 µM (≈ 4.59 µg/mL)
Bacillus megaterium Bm11
  MIC: 2.5 µM (≈ 3.25 µg/mL)
[5]
  MIC: ≥ 80 µM
[6]
  MIC: 2.5 µM (≈ 3.25 µg/mL)
[7]
  MIC: ≥ 80 µM
[8]
  MIC: ≥ 80 µM
[9]
  MIC: 20 µM (≈ 26 µg/mL)
[10]
  MIC: ≥ 80 µM

## NCCCC[C@H](NC(=O)[C@H](CCCCN)NC(=O)[C@H](CCCN=C(N)N)NC(=O)[C@H](CCCN=C(N)N)NC(=O)[C@H](CCCN=C(N)N)NC(=O)[C@H](CCCN=C(N)N)NC(=O)[C@H](CCC(N)=O)NC(=O)[C@H](CCCN=C(N)N)NC(=O)[C@H](CCCN=C(N)N)NC(=O)[C@H](CCCCN)NC(=O)[C@H](CCCCN)NC(=O)[C@@H](N)CCCN=C(N)N)C(=O)N[C@@H](CCCN=C(N)N)C(=O)N[C@@H](CCCN=C(N)N)C(=O)N[C@@H](CCC(N)=O)C(=O)N[C@@H](CCCN=C(N)N)C(=O)N[C@@H](CCCN=C(N)N)C(=O)N[C@@H](CCCN=C(N)N)C(=O)O [RKKRRQRRRRKKRRQRRR]
[11]
  MIC: 7.07 µM and 21.2 µM

## CC[C@H](C)[C@H](NC(=O)[C@H](CC(C)C)NC(=O)[C@@H]1CCCN1C(=O)[C@H](CC(C)C)NC(=O)[C@H](CC(C)C)NC(=O)[C@@H](N)CO)C(=O)N[C@@H](CCCN=C(N)N)C(=O)N[C@@H](CCCCN)C(=O)N[C@@H](CC(C)C)C(=O)N[C@H](C(=O)N[C@H](C(N)=O)[C@@H](C)O)[C@@H](C)CC [SLLPLIRKLIT]
Escherichia coli SBS 363
  MIC: 3.12 µM (≈ 3.95 µg/mL)
Candida albicans MDM8
  MIC: 1.56 µM (≈ 1.97 µg/mL)
Micrococcus luteus A270
  MIC: 1.56 µM (≈ 1.97 µg/mL)

## CC[C@H](C)[C@@H]1NC(=O)[C@H](C)NC(=O)[C@@H](NC(=O)[C@H](Cc2ccccc2)NC(=O)[C@@H](NC(=O)[C@H](CO)NC(=O)[C@@H]2CCCN2C(=O)[C@H](CC(C)C)NC(=O)[C@@H](NC(=O)[C@H](CCCCN)NC(=O)[C@H](CO)NC(=O)[C@H](C)NC(=O)[C@@H](NC(=O)[C@H](CCCCN)NC(=O)[C@H](Cc2ccccc2)NC(=O)[C@H](CC(C)C)NC(=O)[C@H](C)NC(=O)CNC(=O)[C@H](CC(C)C)NC(=O)[C@@H](N)Cc2ccccc2)C(C)C)C(C)C)C(C)C)CSSC[C@@H](C(=O)O)NC(=O)[C@H](CCCCN)NC(=O)[C@H](CCCCN)NC(=O)[C@H]([C@@H](C)O)NC1=O [FLGALFKVASKVLPSVFCAITKKC]
Serratia marcescens
  MIC: ≥ 77.8 µM
[12]
  MIC: 38.9 µM (≈ 99.9 µg/mL)
Escherichia coli
  MIC: 19.4 µM (≈ 50 µg/mL)
[13]
  MIC: 3.89 µM (≈ 9.99 µg/mL)
[14]
  MIC: 3.89 µM (≈ 9.99 µg/mL)
[15]
  MIC: 19.4 µM (≈ 50 µg/mL)
Candida albicans
  MIC: 19.4 µM (≈ 50 µg/mL)
[16]
  MIC: 77.8 µM (≈ 200 µg/mL)
Saccharomyces cerevisiae
  MIC: 19.4 µM (≈ 50 µg/mL)
Pseudomonas putida
  MIC: 19.4 µM (≈ 50 µg/mL)
[17]
  MIC: ≥ 77.8 µM
[18]
  MIC: 0.972 µM (≈ 2.5 µg/mL)
[19]
  MIC: 19.4 µM (≈ 50 µg/mL)

## CC[C@H](C)[C@H](NC(C)=O)C(=O)N[C@@H](Cc1c[nH]c2ccccc12)C(=O)N[C@@H](CC(C)C)C(=O)N[C@H](C(=O)N[C@@H](C)C(=O)N[C@@H](CC(C)C)C(=O)N[C@@H](CCCCN)C(=O)N[C@@H](Cc1ccccc1)C(=O)N[C@@H](CC(C)C)C(=O)NCC(=O)N[C@@H](CCCCN)C(=O)N[C@@H](CC(N)=O)C(=O)N[C@@H](CC(C)C)C(=O)NCC(=O)N[C@@H](CCCCN)C(=O)N[C@@H](CC(C)C)C(=O)N[C@@H](C)C(=O)N[C@@H](CCCCN)C(=O)N[C@@H](CCC(N)=O)C(=O)N[C@@H](CCC(N)=O)C(=O)N[C@@H](CC(C)C)C(=O)N[C@@H](C)C(=O)N[C@@H](CCCCN)C(=O)N[C@@H](CC(C)C)C(N)=O)[C@@H](C)O [IWLTALKFLGKNLGKLAKQQLAKL]
[20]
  MIC: 11.4 µM (≈ 31.2 µg/mL)
[21]
  MIC: 5.7 µM (≈ 15.6 µg/mL)
[4]
  MIC: 0.71 µM (≈ 1.94 µg/mL)
[22]
  MIC: 2.85 µM (≈ 7.8 µg/mL)
